{"source": "patent US9730945B2", "about": "“Diagnosis of autism spectrum disorders and its treatment with an antagonist or inhibitor of the 5-HT2c receptor signaling pathway” (Massachusetts Institute of Technology, priority 2009, dated 2017)", "test_system": "Pten haploinsufficient mice", "test": "Social approach behavior assay (three-chamber apparatus)", "assay_type": "in vivo", "settings": "female Pten haploinsufficient mice, 8 weeks of age, IP 0.3 mg/kg, 20 minutes prior to assay, quantified over 10 minutes, preliminary test", "protocol": "FIG. 5: Effects of the 5-HT2cR antagonist SB 242084 on social approach behavior in Pten haploinsufficient mice. The mice tested were female littermates, 8 weeks of age. The mice were given an IP injection of 0.3 mg/kg of SB 242084 or vehicle, 20 minutes prior to start of the assay. A social stimulus mouse was placed in chamber 1 and an identical empty cage was placed in chamber 3. The percent time the subject mouse spent interacting with the stimulus mouse was quantified over 10 minutes. […] For vehicle treated groups, n=6; for SB 242084-treated groups, n=8. * P<0.05, ANOVA within group comparison between chamber 1 and chamber 3. In each group of bars, the order is: left bar=chamber 1, middle bar=chamber 2, right bar=chamber 3.\nA mouse was placed in an open top acrylic box (24″L×12″W×12″H) with opaque walls. The box was divided into three (8″L×12″W) chambers separated by opaque acrylic panels with holes providing passage between chambers. For reference, the chambers were numbered, from left to right 1, 2, and 3. […] The resulting video was scored with computer assistance by importing into ImageJ software (http://rsb.info.nih.gov/ij/), where each chamber was defined as a region of interest using a script written in-house, and the number of frames in which the mouse was in each region of interest was quantified. […]", "note": "“Also recorded” adds a separate entry of the source.", "data": [{"molecule": "Cc1cc2c(cc1Cl)N(C(=O)Nc1ccc(Oc3cccnc3C)nc1)CC2", "note": "[SB 242084, 6-Chloro-5-methyl-1-[[2-(2-methylpyrid-3-yloxy)pyrid-5-yl]carbamoyl]indoline]", "values": [{"measurement": "social approach behavior (percent time interacting with stimulus mouse, chamber 1 vs chamber 3)", "result": "can offset deficits in social approach behavior; also recorded: significant preference for interacting with the stimulus mouse"}]}]}
